Tested on: SC-β cells
Assay: FACS analysis of marker expression in cells differentiated to SC-β cells (end of Step 6, versus DMSO control)
Type: cell-based, human
Description: FIG. 4A is a schematic illustrating an exemplary method for generating SC-β cells according to an embodiment of the present invention, e.g., by contacting a cell population directed to differentiate to SC-β cells under conditions that promote cell clustering with an agent that decreases the level and/or activity of rho-associated protein kinase (Rock inhibitor), a TGF-β superfamily member (e.g., Activin A), and a protein kinase inhibitor (e.g., staurosporine) during the steps indicated.
The SC-β cells generated in accordance with the methods of the present invention can be used in various assays to identify novel drugs that improve β cell function, survival, or proliferation, cell therapies (e.g., for treating diabetes and/or metabolic disorders), and in the construction of artificial islets and/or an artificial pancreas.

[1] = S4 cells contacted during Step 5, cells at end of Step 6, versus control (DMSO)

**Q.** How did the “endocrine population purity (FACS)” value [1] turn out when `CN[C@@H]1C[C@H]2O[C@@](C)([C@@H]1OC)n1c3ccccc3c3c4c(c5c6ccccc6n2c5c31)C(=O)NC4` [staurosporine] was run?
**A.** near pure endocrine population

**Q.** And the “percentage of NKX6.1+, C-Peptide+ cells (FACS)” value [1]?
**A.** higher percentage of NKX6.1+, C-Peptide+ cells

**Q.** What about the “marker expression at differentiation stages S4, S5, S6 (FACS)” value (S4 cells contacted during Step 5 together with the Rock inhibitor, in the absence of Activin A) of the same compound?
**A.** maintain marker expression
